# According to patent US9492471B2, “Methods of treating a disease or disorder associated with Bruton'S Tyrosine Kinase” (Celgene Avilomics Research, Inc., priority 2013, dated 2016):
# Where two headings read alike, the source gives them in different places.
# Legend:
# Assay in all cases: HotSpot kinase profiling
# Assay type in all cases: biochemical
# [1] = target: T1, ITK (Homo sapiens, UniProt Q08881)
# T1 construct: purchased Reaction Biology Corp
# T1 sequence (Q08881 1-620): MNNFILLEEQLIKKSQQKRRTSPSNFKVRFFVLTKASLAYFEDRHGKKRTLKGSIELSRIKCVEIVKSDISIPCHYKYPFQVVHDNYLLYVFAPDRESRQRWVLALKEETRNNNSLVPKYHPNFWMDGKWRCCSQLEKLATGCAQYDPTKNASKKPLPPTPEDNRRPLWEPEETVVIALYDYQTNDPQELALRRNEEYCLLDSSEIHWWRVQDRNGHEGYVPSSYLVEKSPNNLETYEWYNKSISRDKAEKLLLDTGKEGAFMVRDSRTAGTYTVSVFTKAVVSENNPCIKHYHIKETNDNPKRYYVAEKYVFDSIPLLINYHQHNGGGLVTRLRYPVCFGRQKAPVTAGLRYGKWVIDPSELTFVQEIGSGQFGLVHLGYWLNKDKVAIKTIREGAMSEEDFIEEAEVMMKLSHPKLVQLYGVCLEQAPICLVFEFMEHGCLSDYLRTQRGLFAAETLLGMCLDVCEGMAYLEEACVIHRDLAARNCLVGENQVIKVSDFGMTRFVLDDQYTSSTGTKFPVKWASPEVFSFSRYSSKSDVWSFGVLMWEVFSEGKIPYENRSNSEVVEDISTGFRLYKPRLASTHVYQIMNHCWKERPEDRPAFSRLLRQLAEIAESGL
# Summary of the method: (§1)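 Percent inhibition, averaged when run more than once and referenced to a DMSO negative control, came from a radioactive filter-binding readout on P81 paper. Reactions of kinase with freshly made substrate and cofactors ran for 2 h at room temperature.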
# [2] = target: T2, CDK2/cyclin E (Homo sapiens, UniProt P24941)
# T2 construct: purchased Reaction Biology Corp
# Summary of the method: as §1
# [3] = target: T3, DMPK (Homo sapiens, UniProt Q09013)
# T3 construct: purchased Reaction Biology Corp
# T3 sequence (Q09013 1-629): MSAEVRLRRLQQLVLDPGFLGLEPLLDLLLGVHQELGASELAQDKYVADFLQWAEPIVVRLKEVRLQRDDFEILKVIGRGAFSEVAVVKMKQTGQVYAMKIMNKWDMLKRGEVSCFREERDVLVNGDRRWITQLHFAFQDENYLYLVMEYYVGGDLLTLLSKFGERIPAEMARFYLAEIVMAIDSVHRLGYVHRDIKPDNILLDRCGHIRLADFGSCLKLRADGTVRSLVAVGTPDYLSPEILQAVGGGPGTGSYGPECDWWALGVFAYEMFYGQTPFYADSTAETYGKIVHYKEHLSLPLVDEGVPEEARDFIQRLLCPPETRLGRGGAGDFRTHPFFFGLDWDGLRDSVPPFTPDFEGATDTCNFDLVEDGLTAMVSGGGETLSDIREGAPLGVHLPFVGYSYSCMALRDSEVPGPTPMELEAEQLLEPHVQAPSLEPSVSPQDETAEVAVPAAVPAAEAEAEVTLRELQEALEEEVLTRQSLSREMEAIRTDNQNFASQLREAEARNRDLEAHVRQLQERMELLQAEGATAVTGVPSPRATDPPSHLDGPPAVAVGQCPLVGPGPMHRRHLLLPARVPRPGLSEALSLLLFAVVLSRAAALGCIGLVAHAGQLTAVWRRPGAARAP
# Summary of the method: as §1
# [4] = target: T4, TAOK1 (Homo sapiens, UniProt Q7L7X3)
# T4 construct: purchased Reaction Biology Corp
# T4 sequence (Q7L7X3 1-1001): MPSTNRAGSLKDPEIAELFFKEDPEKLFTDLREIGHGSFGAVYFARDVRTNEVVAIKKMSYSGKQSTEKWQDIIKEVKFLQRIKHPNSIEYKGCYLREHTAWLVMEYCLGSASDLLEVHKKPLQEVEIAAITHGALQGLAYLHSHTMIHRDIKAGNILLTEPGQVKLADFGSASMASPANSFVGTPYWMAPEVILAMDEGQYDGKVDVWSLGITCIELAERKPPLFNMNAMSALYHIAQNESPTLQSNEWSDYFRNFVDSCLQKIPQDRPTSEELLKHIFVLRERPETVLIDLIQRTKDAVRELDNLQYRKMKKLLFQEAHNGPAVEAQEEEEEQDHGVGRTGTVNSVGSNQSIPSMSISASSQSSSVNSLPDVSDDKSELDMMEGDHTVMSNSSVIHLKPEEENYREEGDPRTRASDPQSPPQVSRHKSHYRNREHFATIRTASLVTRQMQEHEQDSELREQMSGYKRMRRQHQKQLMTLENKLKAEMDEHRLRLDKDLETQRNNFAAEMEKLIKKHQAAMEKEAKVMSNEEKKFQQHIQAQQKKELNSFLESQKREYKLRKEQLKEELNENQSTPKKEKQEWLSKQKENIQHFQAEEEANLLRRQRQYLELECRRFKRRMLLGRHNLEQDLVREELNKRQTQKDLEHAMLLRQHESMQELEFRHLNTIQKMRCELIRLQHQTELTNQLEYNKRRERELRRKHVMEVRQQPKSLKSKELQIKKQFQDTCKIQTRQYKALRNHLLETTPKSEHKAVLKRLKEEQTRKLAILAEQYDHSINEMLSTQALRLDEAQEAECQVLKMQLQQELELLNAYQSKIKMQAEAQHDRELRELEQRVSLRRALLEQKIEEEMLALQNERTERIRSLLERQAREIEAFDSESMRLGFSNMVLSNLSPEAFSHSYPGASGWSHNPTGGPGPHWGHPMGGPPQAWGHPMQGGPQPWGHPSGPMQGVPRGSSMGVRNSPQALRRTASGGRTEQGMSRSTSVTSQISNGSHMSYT
# Summary of the method: as §1
# [5] = read-out: % Enzyme Activity (relative to DMSO controls) Run 1
# [6] = read-out: % Enzyme Activity (relative to DMSO controls) Run 2
structure (smiles),measurement,setting,value
C=CC(=O)Nc1cccc(Nc2nc(Nc3ccc(OCCOC)c(F)c3)ncc2F)c1 [Compound 2],inhibition at 3 µM,[1],92%
same,remaining activity at 3 µM,[1]; [5],7.97%
same,remaining activity at 3 µM,[1]; [6],7.95%
same,inhibition at 3 µM,[2],10%
same,remaining activity at 3 µM,[2]; [5],87.9%
same,remaining activity at 3 µM,[2]; [6],92%
same,inhibition at 3 µM,[3],-3.25%
same,remaining activity at 3 µM,[3]; [5],104%
same,remaining activity at 3 µM,[3]; [6],102%
same,inhibition at 3 µM,[4],1.63%
same,remaining activity at 3 µM,[4]; [5],100%
same,remaining activity at 3 µM,[4]; [6],96.2%
